Laboratory results: patent US20210317109A1, “TRICYCLIC SUBSTITUTED PIPERIDINE DIONE COMPOUND” (MEDSHINE DISCOVERY INC., priority 2018, published 2021)
pIC50: −log10 of the molar value. Structures can show the parent of a compound that is named as a salt.

Tests used:
[1] = Pharmacokinetic properties of test compound in mice (oral); type: in vivo, C57BL male mice; conditions: for oral plasma systemic exposures (AUC0-inf), in words / Area under the drug-time curve (0-inf) / Peak concentration / Time to peak: mice; for Area under the drug-time curve (0-inf) / Peak concentration / Time to peak: oral 10 mg/kg, plasma; for pharmacokinetic properties, in words: rodent mice
Text: In this study, C57BL male mice were selected as the test animals. A LC-MS/MS method was used to quantitatively determine the drug concentration in the plasma after oral administration of the test compound and the reference compound, to evaluate the pharmacokinetic profile of the test compound in mice.
C57Balb/c (C57) mice (male, 20-30 g, 7-10 weeks old, Beijing Vital River or Shanghai SLAC).
A clear solution or suspension of the test compound was administrated to C57 mice (fasted overnight) by oral gavage. Blood was collected from jugular vein at pre-dose and 0.5, 1, 2, 4, 6, 8, 24 hours post-dose, the collected blood samples were placed in an anticoagulant tube (Jiangsu Kangjian Medical Co., Ltd.) supplemented with EDTA-K2, and the mixture was vortexed and centrifuged at 13000 rpm for 10 minutes. The LC-MS/MS method was used to determine the plasma concentration of test compounds, and the relevant pharmacokinetic parameters were calculated using non-compartmental model linear logarithmic trapezoidal method by WinNonlinTM Version 6.3 (Pharsight, Mountain View, Calif.).

Mino cell line = assay: Anti-proliferative effect in mantle cell lymphoma cell line Mino (CellTiter-Glo); type: cell-based; conditions: Homo sapiens, 96 h, incubate with the compound for 4 days
Description: (§1) Experiment object: In this experiment, the inhibitory effects of the test compounds on cell proliferation in the diffuse large B-cell lymphoma cell lines OCI-LY10 and DOHH2, and the mantle cell lymphoma cell line Mino were tested.
(§2) The tumor cell lines were cultured in an incubator at 37° C. and 5% CO2 under the above-mentioned culture conditions. The cells were passaged regularly, and cells in the logarithmic growth phase were taken for planting.
(§3) (1). The cells were stained with trypan blue and live cells were counted.
(§4) (2). The cell concentration was adjusted to an appropriate concentration.
(§5) (3). 90 μL of cell suspension was added to each well of the culture plate as shown in the table above, and cell-free culture solution was added to the blank control well.
(§6) (4). The culture plates were incubated overnight at 37° C., 5% CO2, and 100% relative humidity in an incubator.
(§7) The mother liquor storage plate with a compound concentration of 400 times the working concentration of the compound was prepared: The compound was gradually diluted with DMSO from the highest concentration to the lowest concentration. The compound was freshly formulated when use every time.
(§8) (1). Formulation of a working solution with a compound concentration of […] the working concentration of the compound: 76 μL of cell culture solution was added to a 96-well plate with a V-shaped bottom, and 4 μL of the compound was pipetted from the mother liquor storage plate with a compound concentration of […] the working concentration of the compound to the cell culture solution of the 96-well plate. 4 μL of DMSO was added to the vehicle control and blank control. After adding the compound or DMSO, a multi-channel pipette was used for pipetting and mixing well. […]
(§9) The following steps followed the instructions of Promega CellTiter-Glo Luminescence Cell Viability Detection Kit (Promega-G7573). […]
(§10) (8). The culture plates were left at room temperature for 10 minutes to stabilize the luminescence signal.
(§11) (9). The luminous signal was detected on the 2104 EnVision plate reader. […]

OCI-LY10 cell line = assay: Anti-proliferative effect in lymphoma cell line OCI-LY10 (CellTiter-Glo); type: cell-based; conditions: Homo sapiens, OCI-Ly10, 120 h; incubate with the compound for 5 days
Description: as §1, §2, §3, §4, §5
(4). The culture plates were incubated overnight at 37° C., 5% CO2, and 100% relative humidity in an incubator. […]
as §9, §10, §11

DOHH2 cell line = assay: Anti-proliferative effect in lymphoma cell line DOHH2 (CellTiter-Glo); type: cell-based; conditions: Homo sapiens, DOHH-2, 96 h; incubate with the compound for 4 days
Description: as §1, §2, §3, §4, §5, §6, §7, §8, §9, §10, §11

[2] = system: human lymphoma OCI-LY10 cells subcutaneous xenograft tumor
Description: Cells culture: Human lymphoma OCI-LY10 cells (National Cancer Institute) were cultured in a monolayer in vitro. The culture conditions were RPMI-1640 medium with 10% fetal bovine serum, 100 U/mL penicillin and […] streptomycin, 37° C., 5% CO2 incubator culture. Conventional digestion treatment with pancreatin-EDTA for passage was carried out twice a week. When the cell saturation was 80% to 90%, and the number reached the requirement, the cells were collected, counted and inoculated.
Animal: CB-17 SCID mouse, female, 6-8 weeks old, weighing 18-22 grams. Protocols:
0.2 mL (10×10^6 cells) of OCI-LY10 cells (with matrigel in a volume ratio of 1:1) were subcutaneously inoculated on the right back of each mouse. The grouping and administration were started when the average tumor volume reached about 139 mm^3. One dosing cycle was seven days, and the compound was administered once a day with an interval of 24 hours. The test compound was administered orally for a total of four cycles. The dose of the test compound WX002 was 60 mg/kg, the tumor volume was measured twice a week with a two-dimensional caliper, and the volume was measured in cubic millimeters, calculated by the following formula: V =0.5a×b^2, in which a and b were the long diameter and short diameter of the tumor, respectively. The anti-tumor efficacy was determined by dividing average increase of tumor volume of animals treated with the compound by that of untreated animals.

[3] = 60 mg/kg oral once a day, Day 27

Row | SMILES | oral plasma systemic exposures (AUC0-inf), in words [1] | Area under the drug-time curve (0-inf) [1] | Peak concentration [1] | Time to peak [1] | pharmacokinetic properties, in words [1] | pIC50 (Mino cell line) | pIC50 (DOHH2 cell line) | pIC50 (OCI-LY10 cell line) | Tumor volume (Day 1) ([2]; 60 mg/kg oral once a day, Day 1 (start of administration)) | TGI (Day 27) [2, 3] | Tumor volume (Day 27) [2, 3] | effect on the human lymphoma OCI-LY10 in vivo pharmacodynamic model, in words ([2]; mouse, in vivo)
1 | CCOC(=O)Cc1coc2ccc3cc(OCCN(C)C)ccc3c12 [Hydrochloride of WX008] | higher oral plasma systemic exposures | 10.27 µM·h | 4.88 µM | 1.00 h | better pharmacokinetic properties |  |  |  |  |  |  | 
2 | O=C1CCC(c2coc3ccc4cc(OCCN5CCOCC5)ccc4c23)C(=O)N1 (centres unmarked) [Hydrochloride of WX020] | higher oral plasma systemic exposures | 18.38 µM·h | 8.56 µM | 0.25 h | better pharmacokinetic properties |  |  |  |  |  |  | 
3 | O=C1CCC(c2coc3ccc4ccccc4c23)C(=O)N1 (centres unmarked) [WX002] |  | 2.49 µM·h | 2.83 µM | 0.50 h |  | 8.10 | 7.01 | 7.59 | 139 ± 10 mm^3 | 111% | 35 ± 10 mm^3 | significant tumor-shrinking effect

More lines, main results first:

Row | oral plasma systemic exposures (AUC0-inf), in words [1] | Area under the drug-time curve (0-inf) [1] | Peak concentration [1] | Time to peak [1] | pharmacokinetic properties, in words [1] | pIC50 (Mino cell line) | pIC50 (DOHH2 cell line) | SMILES | pIC50 (OCI-LY10 cell line) | Tumor volume (Day 1) ([2]; 60 mg/kg oral once a day, Day 1 (start of administration)) | TGI (Day 27) [2, 3] | Tumor volume (Day 27) [2, 3] | effect on the human lymphoma OCI-LY10 in vivo pharmacodynamic model, in words ([2]; mouse, in vivo)
4 | higher oral plasma systemic exposures | 5.50 µM·h | 6.54 µM | 0.25 h | better pharmacokinetic properties | 8.15 | 6.84 | O=C1CCC(c2coc3ccc4occc4c23)C(=O)N1 (centres unmarked) [WX004] | 7.77 |  |  |  | 
5 |  |  |  |  |  | 8.00 | 6.78 | Cc1cc2c(ccc3occ(C4CCC(=O)NC4=O)c32)o1 (centres unmarked) [WX005] |  |  |  |  | 
6 | higher oral plasma systemic exposures | 7.79 µM·h | 12.95 µM | 0.08 h | better pharmacokinetic properties |  |  | O=C1CCC(c2coc3ccc4[nH]ccc4c23)C(=O)N1 (centres unmarked) [WX007] |  |  |  |  | 
